Entries after “also recorded” stand apart in the source; their conditions may differ.
Experiments:
[1] = Photosensitivity screening: H2O2 formation by antioxidant candidates upon light exposure (Amplex Ultra Red Assay); assay type: physicochemical; conditions: for (H2O2 produced by Compound)/(H2O2 produced by L-Trp): 1 mM in 20 mM histidine acetate pH 5.5, four hours of light at 250 W/m^2; for H2O2 production upon light exposure compared to L-Trp (in words) / H2O2 produced in comparison to L-Trp (times more): 1 mM, 20 mM L-His-acetate pH 5.5, 4 h light; for H2O2 production upon light exposure compared to L-Trp (in words): 0.22 million lux hours
Description: As a screening tool, antioxidant candidates were exposed to light for four hours at 250 W/m^2 and the resulting H2O2 formation was quantified by the Amplexassay. Specifically, antioxidants were prepared to 1 mM in 20 mM histidine acetate buffer at pH 5.5. The 1 mM antioxidant solutions were aliquoted into glass vials (2 mL/glass vial) and exposed to four hours of light at 250 W/m^2 in an Atlas SunTest CPS+ Xenon Test Instrument (Chicago, Ill.). Total UV dose was 90 watt-hours/square meter and total visible dose was 0.22 million lux hours over the 4-hour period. Control vials were wrapped in aluminum foil and treated similarly. The amount of hydrogen peroxide generated after exposure to light was measured using the Amplex® Ultra Red Assay (Invitrogen, Carlsbad, Calif.) following the manufacturer's recommended procedure. On addition of horseradish peroxidase (HRP), the dye reacted 1:1 stoichiometrically with H2O2, resulting in the production of fluorescent oxidation product resorufin. In this study, fluorescence readings were obtained using a Spectra Max M2 Micro-plate Reader (Molecular Devices, Sunnyvale, Calif.) with excitation and emission set at 560 nm and 590 nm, respectively. Final H2O2 concentrations were determined using a standard curve ranging from 0 μm to 20 μm. […]

[2] = Cyclic voltammetry (CV) screening of oxidation potentials; assay type: physicochemical; conditions: for Oxidation Potential (anodic peak): glassy carbon working electrode, 0.2 M lithium perchlorate; for Oxidation potential relative to L-Trp (in words): cyclic voltammetry
Description: The oxidation/reduction characteristics of the compounds were investigated. Several compounds, including L-Trp and derivatives, were evaluated for the protection of Trp oxidation in proteins using cyclic voltammetry (CV) and rank ordered based on their oxidation potentials (Table 2). Specifically, the candidate antioxidants were dissolved in deionized water and then added to a 0.2 M lithium perchlorate electrolyte solution. […] Solutions were scanned from −0.10 V to +1.50 V at a scan rate of either 100 or 500 mV/sec. The analytical cell was purged for four minutes with nitrogen before scanning of each antioxidant solution. The input was a linear scan of the potential of a working electrode, and the output was measurement of the resulting current. […] Redox reactions were characterized by sharp increases or decreases in current (peaks). The potential at which an oxidation reaction occurred was referred to as the anodic peak potential (or oxidation potential), and the potential at which a reduction occurred was referred to as is the cathodic peak (or reduction) potential.

[3] = tested on: mAb1; assay: mAb1 light stress study, 16 hours; Fab/Fc oxidation by RP-HPLC; assay type: physicochemical, human; conditions: 16 hours of light at 250 W/m^2, excipient 1 mM
Description: (§1) The fragments were reduced with DTT, and then separated and identified via Liquid Chromatography-Mass Spectrometry (LC-MS). […] Comparison of area integrated under the oxidized and native peaks was used to quantify HC Fab and Fc oxidation. […] By using the papain digest RP-HPLC method in the present study it was possible to investigate Trp residue oxidation by quantifying HC Fab oxidation, and Met residue oxidation by quantifying HC Fc oxidation.
Antioxidants were added at 1 mM. Glass vials containing these formulations were exposed to 250 W/m^2 light in an Atlas SunTest CPS+ Xenon Test Instrument (Chicago, Ill.). Control vials were wrapped in aluminum foil and treated similarly. After light exposure, solutions were prepared for analysis by reverse-phase HPLC as described above.

[4] = tested on: mAb1; assay: mAb1 AAPH stress study; Fab/Fc oxidation by RP-HPLC; assay type: physicochemical, human; conditions: AAPH, 24 hours at 40° C.; antioxidants at 1 mM; label mAb1 = no excipient
Excerpt: as §1
% Fab oxidation and % Fc oxidation were calculated as follows: […]
Antioxidants were added at 1 mM. […] After buffer exchange, each solution was prepared for analysis by reverse-phase HPLC as described above.

[5] = tested on: mAb1; assay: mAb1 light stress, eight hours, with L-Trp and L-Met; Fab/Fc oxidation by papain digest RP-HPLC; assay type: physicochemical, human; conditions: 8 h light at 250 W/m^2
Description: L-tryptophan (L-Trp), an antioxidant used in protein formulations, has been recently shown to be photosensitive (Igarashi et al., Anal Sci 23(8):943-8 (2007)) and to have the ability to produce H2O2 upon light exposure. […] Control vials were wrapped in aluminum foil and treated similarly. After light exposure, solutions were prepared for analysis by reverse-phase HPLC. […] Following incubation, 900 μL of the solution was combined with 100 μL of 1 M dithiothreitol (DTT) and incubated for another thirty minutes at 37° C. Samples were then run on an Agilent, Inc. 1100/1200 HPLC system (Santa Clara, Calif.) equipped with UV detection at 280 nm in conjunction with a Varian, Inc. Pursuit 3 μm, 2 mm ID×250 mm diphenyl column (Palo Alto, Calif.). Mobile Phase A was 0.1% TFA in water. Mobile Phase B was 0.1% TFA in acetonitrile. The mobile phase gradient increased linearly from 34% B at 0 minutes to 43% B at 50.0 minutes, then to 95% B at 50.1 minutes. The gradient remained at 95% B until 60.1 minutes, and then decreased linearly from 95% B to 34% B between 60.1 and 60.2 minutes. The gradient remained at 34% B until the end of the cycle at 80.2 minutes. The column temperature was 65° C., total flow rate was 0.2 mL/min, and injection volume of each sample was 6 μL. Chromatograms were then integrated for quantification of oxidation.

SMILES	(H2O2 produced by Compound)/(H2O2 produced by L-Trp) [1]	H2O2 production upon light exposure compared to L-Trp (in words) [1]	Oxidation Potential (anodic peak) [2]	Oxidation potential relative to L-Trp (in words) [2]	further results
Nc1ccc2[nH]cc(C[C@H](N)C(=O)O)c2c1 (racemic) [5-Amino-DL-Trp, 5-Amino-Tryptophan]	0.29	low levels of H2O2 production	0.410 V vs Ag/AgCl		
COc1ccc2[nH]cc(C[C@H](N)C(=O)O)c2c1 (racemic) [5-Methoxy-DL-Trp, 5-Methoxy-Tryptophan]	1.05	produced more H2O2	0.890 V vs Ag/AgCl		
NC(Cc1c[nH]c2ccc([N+](=O)[O-])cc12)C(=O)O (racemic) [5-nitro-DL-tryptophan]			1.055 V vs Ag/AgCl	higher oxidation potential than L-Trp	
Oc1cccc2[nH]ccc12 [4-Hydroxyindole, 4-Hydroxy Indole]	0.00				
N[C@@H](Cc1c[nH]c2ccc(F)cc12)C(=O)O [5-Fluoro-L-Trp, 5-Fluoro-Tryptophan]	0.71	produced more H2O2	0.965 V vs Ag/AgCl	higher oxidation potential than L-Trp	
N[C@@H](Cc1c[nH]c2ccc(O)cc12)C(=O)O [5-Hydroxy-L-Trp, 5-Hydroxy-Tryptophan]	0.09		0.565 V vs Ag/AgCl		H2O2 production upon light exposure compared to L-Trp (in words) ([1]; listed as 5-hydroxy-L-tryptophan): about one tenth of the H2O2; also recorded: low levels of H2O2 production; Effect on light-induced Fab oxidation (in words) [3]: reducing Fab oxidation to near control levels; Fab (Trp residue) oxidation of mAb1 after AAPH incubation [4]: about 2%
Nc1ccc(O)cc1C(=O)O [5-Hydroxyanthranilic Acid, 5-Hydroxy Anthranilic Acid]	0.44	half as much H2O2			
O=C(O)Cc1c[nH]c2ccc(O)cc12 [5-Hydroxyindole-3-Acetic Acid, 5-Hydroxy Indole-3-Acetic Acid]	0.11	low levels of H2O2 production	0.535 V vs Ag/AgCl		
O=C(O)c1cc(O)ccc1O [5-Hydroxysalicylic Acid, 5-Hydroxy Salicylic Acid]	0.84				
Oc1cccc2cc[nH]c12 [7-Hydroxyindole, 7-Hydroxy Indole]	−0.03				Effect on light-induced Fab oxidation (in words) [3]: reducing Fab oxidation to near control levels; Fab (Trp residue) oxidation of mAb1 after AAPH incubation [4]: about 2%
O=C(O)c1cc2cccc(O)c2[nH]1 [7-Hydroxyindole-2-Carboxylic Acid, 7-Hydroxy Indole-2-Carboxylic Acid]	0.15				
Nc1ccccc1C(=O)O [Anthranilic Acid]	2.50	twice as much H2O2			
O=C(O)Cc1c[nH]c2ccccc12 [Indole-3-Acetic Acid]	2.40	twice as much H2O2; also recorded: two times more; also recorded: produced more H2O2	0.948 V vs Ag/AgCl	higher oxidation potential than L-Trp	
c1ccc2[nH]ccc2c1 [Indole]	0.95	behaved similarly to L-Trp		significantly lower oxidation potential than L-Trp	
Nc1ccccc1C(=O)CC(N)C(=O)O [L-Kynurenine, Kynurenine]	0.20		1.040 V vs Ag/AgCl	higher oxidation potential than L-Trp	H2O2 production upon light exposure compared to L-Trp (in words) ([1]; listed as L-kynurenine): did not produce much H2O2; H2O2 production upon light exposure compared to L-Trp (in words) ([1]; listed as kynurenine): about one fifth of the H2O2
CSCC[C@H](N)C(=O)O [L-Met, L-methionine]					Effect on Fab oxidation of mAb1 (in words) ([5]; 10, 25, 50, 100 mM L-Met added to formulation containing 1 mM L-Trp): appeared to reduce Fab oxidation slightly; Effect on Fc oxidation of mAb1 (in words) ([5]; L-Met 10, 25, 50, 100 mM added to 1 mM L-Trp, label mAb1 = No Excipient): reduced the amount of Fc oxidation
NC(=O)[C@@H](N)Cc1c[nH]c2ccccc12 [L-Trpamide, Tryptophanamide]	0.43		1.015 V vs Ag/AgCl	higher oxidation potential than L-Trp	Fc oxidation under light stress compared to no excipient control (in words) [3]: more Fc oxidation; Fab oxidation increase over the control level (mAb1 Ref Mat) ([3]; label mAb1 = No Excipient): 8 fold
CC(=O)N[C@@H](Cc1c[nH]c2ccccc12)C(=O)O [N-Acetyl-L-Trp, N-Acetyl-Tryptophan]	0.31		0.875 V vs Ag/AgCl		
COc1ccc2[nH]cc(CCNC(C)=O)c2c1 [N-acetyl-5-methoxytryptamine]	0.28	less than a third of the H2O2	0.730 V vs Ag/AgCl		
Cc1ncc(CO)c(CO)c1O [Pyridoxine]	5.16				H2O2 produced in comparison to L-Trp (times more) [1]: 5 times
Cc1c(C)c2c(c(C)c1O)CCC(C)(C(=O)O)O2 (stereo not drawn) [Trolox]	122.75				H2O2 produced in comparison to L-Trp (times more) [1]: 123 times
NCCc1c[nH]c2ccccc12 [Tryptamine]	0.53	about half as much H2O2	1.010 V vs Ag/AgCl	higher oxidation potential than L-Trp	H2O2 production upon light exposure compared to L-Trp (in words) ([1]; listed as tryptamine): two times less

From patent US10653779B2, “Formulations with reduced oxidation” (Genentech, Inc., priority 2013, dated 2020)
